From PubChem BioAssay AID1259407 (Chemical Carcinogenesis Research Information System (CCRIS), 2018)
Calls of active or inactive are those of the source. How the calls were made is not given here.

System: CCRIS mutagenicity, Ames/micronucleus/aberration tests
Experiment: CCRIS mutagenicity studies
[1] = Test System: Mouse lymphoma cells, Strain/Indicator: L5178Y ( tk+/tk-), Metabolic Activation: Human, Liver, S-9, Method: Suspension/plate

C[N+](C)(C)CCO
mutagenic call (Test System: AMES SALMONELLA TYPHIMURIUM, Strain/Indicator: TA98, Metabolic Activation: NONE, Method: PREINCUBATION): inactive; negative
mutagenic call (Test System: AMES SALMONELLA TYPHIMURIUM, Strain/Indicator: TA98, Metabolic Activation: RAT, LIVER, S-9, PHENOBARBITAL AND BETA-NAPHTHOFLAVONE, Method: PREINCUBATION): inactive; negative
mutagenic call (Test System: AMES SALMONELLA TYPHIMURIUM, Strain/Indicator: TA100, Metabolic Activation: NONE, Method: PREINCUBATION): inactive; negative
mutagenic call (Test System: AMES SALMONELLA TYPHIMURIUM, Strain/Indicator: TA100, Metabolic Activation: RAT, LIVER, S-9, PHENOBARBITAL AND BETA-NAPHTHOFLAVONE, Method: PREINCUBATION): inactive; negative
mutagenic call (Test System: AMES SALMONELLA TYPHIMURIUM, Strain/Indicator: TA102, Metabolic Activation: NONE, Method: PREINCUBATION): inactive; negative
mutagenic call (Test System: AMES SALMONELLA TYPHIMURIUM, Strain/Indicator: TA102, Metabolic Activation: RAT, LIVER, S-9, PHENOBARBITAL AND BETA-NAPHTHOFLAVONE, Method: PREINCUBATION): inactive; negative
mutagenic call (Test System: AMES SALMONELLA TYPHIMURIUM, Strain/Indicator: TA104, Metabolic Activation: NONE, Method: PREINCUBATION): inactive; negative
mutagenic call (Test System: AMES SALMONELLA TYPHIMURIUM, Strain/Indicator: TA104, Metabolic Activation: RAT, LIVER, S-9, PHENOBARBITAL AND BETA-NAPHTHOFLAVONE, Method: PREINCUBATION): inactive; negative
mutagenic call (Test System: AMES SALMONELLA TYPHIMURIUM, Strain/Indicator: TA1535, Metabolic Activation: NONE, Method: PREINCUBATION): inactive; negative
mutagenic call (Test System: AMES SALMONELLA TYPHIMURIUM, Strain/Indicator: TA1535, Metabolic Activation: RAT, LIVER, S-9, PHENOBARBITAL AND BETA-NAPHTHOFLAVONE, Method: PREINCUBATION): inactive; negative
mutagenic call (Test System: AMES SALMONELLA TYPHIMURIUM, Strain/Indicator: TA1537, Metabolic Activation: NONE, Method: PREINCUBATION): inactive; negative
mutagenic call (Test System: AMES SALMONELLA TYPHIMURIUM, Strain/Indicator: TA1537, Metabolic Activation: RAT, LIVER, S-9, PHENOBARBITAL AND BETA-NAPHTHOFLAVONE, Method: PREINCUBATION): inactive; negative
mutagenic call (Test System: E. COLI, Strain/Indicator: WP2UVRA/PKM101, Metabolic Activation: NONE, Method: PREINCUBATION): inactive; negative
mutagenic call (Test System: E. COLI, Strain/Indicator: WP2UVRA/PKM101, Metabolic Activation: RAT, LIVER, S-9, PHENOBARBITAL AND BETA-NAPHTHOFLAVONE, Method: PREINCUBATION): inactive; negative
mutagenic call (Test System: E. COLI, Strain/Indicator: WP2UVRA, Metabolic Activation: NONE, Method: PREINCUBATION): inactive; negative
mutagenic call (Test System: E. COLI, Strain/Indicator: WP2UVRA, Metabolic Activation: RAT, LIVER, S-9, PHENOBARBITAL AND BETA-NAPHTHOFLAVONE, Method: PREINCUBATION): inactive; negative

COc1cc(/C=C/c2ccccc2)oc(=O)c1
mutagenic call [1]: inactive; negative

O=C1c2cc(O)cc(O)c2C(=O)c2c(O)cc(CO)cc21
mutagenic call (Test System: AMES SALMONELLA TYPHIMURIUM, Strain/Indicator: TA1537, Metabolic Activation: RAT, LIVER, S-9, PCB, Method: STANDARD PLATE): active; positive
mutagenic call (Test System: AMES SALMONELLA TYPHIMURIUM, Strain/Indicator: TA1537, Metabolic Activation: RAT, LIVER, S-9, POLYCHLORINATED BIPHENYLS, Method: STANDARD PLATE): active; positive

COC1=CC(=O)O[C@@H](CCc2ccccc2)C1
mutagenic call [1]: inactive; negative

CN(C)c1ccc(C(=O)c2ccc(N(C)C)cc2)cc1
mutagenic call (Test System: AMES SALMONELLA TYPHIMURIUM, Strain/Indicator: TA98, Metabolic Activation: MOUSE, LIVER, S-9, AROCLOR 1254, Method: STANDARD PLATE): inactive; negative
mutagenic call (Test System: AMES SALMONELLA TYPHIMURIUM, Strain/Indicator: TA98, Metabolic Activation: MOUSE, LIVER, S-9, Method: STANDARD PLATE): inactive; negative
mutagenic call (Test System: AMES SALMONELLA TYPHIMURIUM, Strain/Indicator: TA98, Metabolic Activation: NONE, Method: STANDARD PLATE): inactive; negative
mutagenic call (Test System: AMES SALMONELLA TYPHIMURIUM, Strain/Indicator: TA98, Metabolic Activation: RAT, LIVER, S-9, Method: STANDARD PLATE): inactive; negative
mutagenic call (Test System: AMES SALMONELLA TYPHIMURIUM, Strain/Indicator: TA100, Metabolic Activation: HAMSTER, LIVER, S-9, AROCLOR 1254, Method: STANDARD PLATE): inactive; negative
mutagenic call (Test System: AMES SALMONELLA TYPHIMURIUM, Strain/Indicator: TA100, Metabolic Activation: HAMSTER, LIVER, S-9, Method: STANDARD PLATE): inactive; negative
mutagenic call (Test System: AMES SALMONELLA TYPHIMURIUM, Strain/Indicator: TA100, Metabolic Activation: MOUSE, LIVER, S-9, Method: STANDARD PLATE): inactive; negative
mutagenic call (Test System: AMES SALMONELLA TYPHIMURIUM, Strain/Indicator: TA100, Metabolic Activation: NONE, Method: STANDARD PLATE): inactive; negative
mutagenic call (Test System: AMES SALMONELLA TYPHIMURIUM, Strain/Indicator: TA100, Metabolic Activation: RAT, LIVER, S-9, AROCLOR 1254, Method: STANDARD PLATE): inactive; negative
mutagenic call (Test System: AMES SALMONELLA TYPHIMURIUM, Strain/Indicator: TA100, Metabolic Activation: RAT, LIVER, S-9, Method: STANDARD PLATE): inactive; negative
mutagenic call (Test System: AMES SALMONELLA TYPHIMURIUM, Strain/Indicator: TA1535, Metabolic Activation: HAMSTER, LIVER, S-9, AROCLOR 1254, Method: STANDARD PLATE): inactive; negative
mutagenic call (Test System: AMES SALMONELLA TYPHIMURIUM, Strain/Indicator: TA1535, Metabolic Activation: HAMSTER, LIVER, S-9, Method: STANDARD PLATE): inactive; negative
mutagenic call (Test System: AMES SALMONELLA TYPHIMURIUM, Strain/Indicator: TA1535, Metabolic Activation: MOUSE, LIVER, S-9, AROCLOR 1254, Method: STANDARD PLATE): inactive; negative
mutagenic call (Test System: AMES SALMONELLA TYPHIMURIUM, Strain/Indicator: TA1535, Metabolic Activation: MOUSE, LIVER, S-9, Method: STANDARD PLATE): inactive; negative
mutagenic call (Test System: AMES SALMONELLA TYPHIMURIUM, Strain/Indicator: TA1535, Metabolic Activation: NONE, Method: STANDARD PLATE): inactive; negative
mutagenic call (Test System: AMES SALMONELLA TYPHIMURIUM, Strain/Indicator: TA1535, Metabolic Activation: RAT, LIVER, S-9, AROCLOR 1254, Method: STANDARD PLATE): inactive; negative
mutagenic call (Test System: AMES SALMONELLA TYPHIMURIUM, Strain/Indicator: TA1535, Metabolic Activation: RAT, LIVER, S-9, Method: STANDARD PLATE): inactive; negative
mutagenic call (Test System: AMES SALMONELLA TYPHIMURIUM, Strain/Indicator: TA1537, Metabolic Activation: HAMSTER, LIVER, S-9, AROCLOR 1254, Method: STANDARD PLATE): inactive; negative
mutagenic call (Test System: AMES SALMONELLA TYPHIMURIUM, Strain/Indicator: TA1537, Metabolic Activation: MOUSE, LIVER, S-9, AROCLOR 1254, Method: STANDARD PLATE): inactive; negative
mutagenic call (Test System: AMES SALMONELLA TYPHIMURIUM, Strain/Indicator: TA1537, Metabolic Activation: MOUSE, LIVER, S-9, Method: STANDARD PLATE): inactive; negative
mutagenic call (Test System: AMES SALMONELLA TYPHIMURIUM, Strain/Indicator: TA1537, Metabolic Activation: NONE, Method: STANDARD PLATE): inactive; negative
mutagenic call (Test System: AMES SALMONELLA TYPHIMURIUM, Strain/Indicator: TA1537, Metabolic Activation: RAT, LIVER, S-9, AROCLOR 1254, Method: STANDARD PLATE): inactive; negative
mutagenic call (Test System: AMES SALMONELLA TYPHIMURIUM, Strain/Indicator: TA1537, Metabolic Activation: RAT, LIVER, S-9, Method: STANDARD PLATE): inactive; negative
mutagenic call (Test System: AMES SALMONELLA TYPHIMURIUM, Strain/Indicator: TA1538, Metabolic Activation: MOUSE, LIVER, S-9, Method: STANDARD PLATE): inactive; negative
mutagenic call (Test System: AMES SALMONELLA TYPHIMURIUM, Strain/Indicator: TA1538, Metabolic Activation: NONE, Method: STANDARD PLATE): inactive; negative
mutagenic call (Test System: AMES SALMONELLA TYPHIMURIUM, Strain/Indicator: TA1538, Metabolic Activation: RAT, LIVER, S-9, Method: STANDARD PLATE): inactive; negative
mutagenic call (Test System: E. COLI, Strain/Indicator: WP2 UVRA, Metabolic Activation: HAMSTER, LIVER, S-9, AROCLOR 1254, Method: STANDARD PLATE): inactive; negative
mutagenic call (Test System: E. COLI, Strain/Indicator: WP2 UVRA, Metabolic Activation: HAMSTER, LIVER, S-9, Method: STANDARD PLATE): inactive; negative
mutagenic call (Test System: E. COLI, Strain/Indicator: WP2 UVRA, Metabolic Activation: MOUSE, LIVER, S-9, AROCLOR 1254, Method: STANDARD PLATE): inactive; negative
mutagenic call (Test System: E. COLI, Strain/Indicator: WP2 UVRA, Metabolic Activation: MOUSE, LIVER, S-9, Method: STANDARD PLATE): inactive; negative
mutagenic call (Test System: E. COLI, Strain/Indicator: WP2 UVRA, Metabolic Activation: NONE, Method: STANDARD PLATE): inactive; negative
mutagenic call (Test System: E. COLI, Strain/Indicator: WP2 UVRA, Metabolic Activation: RAT, LIVER, S-9, AROCLOR 1254, Method: STANDARD PLATE): inactive; negative
mutagenic call (Test System: E. COLI, Strain/Indicator: WP2 UVRA, Metabolic Activation: RAT, LIVER, S-9, Method: STANDARD PLATE): inactive; negative
